Measurements: patent US20250215008A1, “PREPARATION AND USE OF QUINAZOLINONE DERIVATIVE AS KINASE INHIBITOR” (Haisco Pharmaceutical Group Co., Ltd., priority 2022, published 2025)
Where two headings read alike, the source gives them in different places.

What was measured:
A375 cells = test: A375 cell proliferation inhibition; assay type: cell-based; conditions: read-out: IC50/nM, inhibitory activity on A375 cells
Method: A375 cells (ATCC, CRL-1619) were cultured in DMEM complete medium (+10% FBS) in a CO2 incubator at 37° C. for 48 h. The cells were trypsinized and counted, and then the density was adjusted to 1.67×10^4 cells/mL. 90 μL (1500 cells) of cells were inoculated into each well of a 96-well transparent bottom plate, and the plate was transferred to a CO2 incubator and the cells were cultured overnight at 37° C. After the cells were incubated overnight, 10 μL of the diluted compound (final concentration starting from 10 μM, 3-fold dilution, 11 concentrations) was added to each well using a multi-channel pipette. The positive control was a serum-free medium containing DMSO. After mixing evenly, the cells were placed in a CO2 incubator at 37° C. for 72 h. After the incubation, the CellCounting-Lite®2.0 kit detection solution (Vazyme, DD1101-03) was taken out and returned to room temperature. 100 μL of CellCounting-Lite2.0 detection solution was added to each well, the plate was sealed with a sealing film, and the plate was placed on a shaker for shaking for 15 min (the whole process should be kept away from light). The Luminescence module of the microplate reader (BMG LRBTECH) was used to detect the fluorescence signal value LUM of each well. The formula
[formula] • was used to calculate the inhibition rate of the compound. The Graphpad software log (inhibitor) vs. response—Variable slope (four parameters) equation was used to perform fitting analysis and calculate the IC50 value of the sample. The ordinate of the data is the percentage of inhibition rate, and the abscissa is the logarithm of the sample concentration (Log10).

[1] = Mouse pharmacokinetic test; assay type: in vivo, ICR mice; conditions: for Kp: brain/plasma, read-out: brain/plasma ratio; for Vd: read-out: Vdss
Method: (§1) • 1.1 Experimental animals: male ICR mice, 20-25 g, 12 mice/compound, purchased from Chengdu Ddossy Experimental Animals Co., Ltd. • 1.2 Experimental design: on the day of the test, 12 ICR mice were randomly grouped according to their body weights. The animals were fasted with water available for 12 to 14 h one day before the administration and were fed 4 h after the administration.
Before and after administration, 0.06 mL of blood was taken from the orbit under isoflurane anesthesia and placed in an EDTAK2 centrifuge tube for centrifugation at 5000 rpm at 4° C. for 10 min, followed by plasma collection. The blood collection time points for the intravenous administration group and intragastric administration group were 0, 5 min, 15 min, 30 min, 1 h, 2 h, 4 h, 7 h and 24 h. Before analysis and detection, all samples were stored at −80° C., and a quantitative analysis of samples was performed using LC-MS/MS.

[2] = Beagle dog pharmacokinetic test; assay type: in vivo, beagle dogs; conditions: for F: beagle dog
Method: • Experimental animals: male beagle dogs, about 8-11 kg, 6 beagle dogs/compound, purchased from Beijing Marshall Biotechnology Co., Ltd. • Experimental method: on the day of the experiment, 6 beagle dogs were randomly grouped according to their body weights. The animals were fasted with water available for 12 to 14 h one day before the administration and were fed 4 h after the administration. Administration was performed as per Table 1.
(DMA: dimethylacetamide; Solutol: polyethylene glycol-15-hydroxystearate; Saline: physiological saline; MC: Methylcellulose solution) Before and after the administration, 1 ml of blood was taken from the jugular veins or limb veins, and placed in an EDTAK2 centrifuge tube. Centrifugation was performed at 5000 rpm at 4° C. for 10 min, and plasma was collected. The blood collection time points for the intravenous group and intragastric group were both 0 min, 5 min, 15 min, 30 min, 1 h, 2 h, 4 h, 6 h, 8 h, 10 h, 12 h, 24 h, 48 h, and 72 h. Before analysis and detection, all samples were stored at −80° C. The samples were analyzed quantitatively by LC-MS/MS.

Rat pharmacokinetic test = assay type: in vivo, SD rats
Method: as §1, with “5.1” for “1.1”, “SD rats, about 220” for “ICR mice, 20-25”, “6-8 weeks old, 6 rats/compound,” for “12 mice/compound,”, “5.2” for “1.2”, “experiment, 6 SD rats” for “test, 12 ICR mice”, “weights; the” for “weights. The”
Before and after the administration, 0.1 ml of blood was taken from the orbit of the animals under isoflurane anesthesia and placed in an EDTAK2 centrifuge tube. The blood was centrifuged at 5000 rpm and 4° C. for 10 min to collect plasma. Blood sampling time points for the intravenous administration group: 0, 5 min, 15 min, 30 min, 1 h, 2 h, 4 h, 6 h, 8 h, and 24 h; blood sampling time points for the intragastric administration group: 0, 5 min, 15 min, 30 min, 1 h, 2 h, 4 h, 6 h, 8 h and 24 h. Before analysis and detection, all samples were stored at −80° C.

MDR1 = MDR1 (Homo sapiens (Human), UniProt P08183); conditions: cited from earlier work
BCRP = BCRP (Homo sapiens (Human), UniProt Q9UNQ0); conditions: cited from earlier work
[3] = in vivo; cited from earlier work
[4] = male, ICR, po, mouse, i.g. 10 mg/kg
[5] = male, ICR, iv, mouse plasma, i.v. 2.5 mg/kg
[6] = male, ICR, iv, mouse plasma, i.v. 2.5 mg/kg, read-out: AUC0-t
[7] = male, ICR, po, mouse plasma, i.g. 10 mg/kg
[8] = male, ICR, po, mouse plasma, i.g. 10 mg/kg, read-out: AUC0-t
[9] = beagle dog plasma, i.v. 0.5 mg/kg
[10] = rat plasma, intragastric administration 10 mg/kg
[11] = rat plasma, intravenous administration 2.5 mg/kg

Sequence of MDR1 (P08183 whole entry, species assumed): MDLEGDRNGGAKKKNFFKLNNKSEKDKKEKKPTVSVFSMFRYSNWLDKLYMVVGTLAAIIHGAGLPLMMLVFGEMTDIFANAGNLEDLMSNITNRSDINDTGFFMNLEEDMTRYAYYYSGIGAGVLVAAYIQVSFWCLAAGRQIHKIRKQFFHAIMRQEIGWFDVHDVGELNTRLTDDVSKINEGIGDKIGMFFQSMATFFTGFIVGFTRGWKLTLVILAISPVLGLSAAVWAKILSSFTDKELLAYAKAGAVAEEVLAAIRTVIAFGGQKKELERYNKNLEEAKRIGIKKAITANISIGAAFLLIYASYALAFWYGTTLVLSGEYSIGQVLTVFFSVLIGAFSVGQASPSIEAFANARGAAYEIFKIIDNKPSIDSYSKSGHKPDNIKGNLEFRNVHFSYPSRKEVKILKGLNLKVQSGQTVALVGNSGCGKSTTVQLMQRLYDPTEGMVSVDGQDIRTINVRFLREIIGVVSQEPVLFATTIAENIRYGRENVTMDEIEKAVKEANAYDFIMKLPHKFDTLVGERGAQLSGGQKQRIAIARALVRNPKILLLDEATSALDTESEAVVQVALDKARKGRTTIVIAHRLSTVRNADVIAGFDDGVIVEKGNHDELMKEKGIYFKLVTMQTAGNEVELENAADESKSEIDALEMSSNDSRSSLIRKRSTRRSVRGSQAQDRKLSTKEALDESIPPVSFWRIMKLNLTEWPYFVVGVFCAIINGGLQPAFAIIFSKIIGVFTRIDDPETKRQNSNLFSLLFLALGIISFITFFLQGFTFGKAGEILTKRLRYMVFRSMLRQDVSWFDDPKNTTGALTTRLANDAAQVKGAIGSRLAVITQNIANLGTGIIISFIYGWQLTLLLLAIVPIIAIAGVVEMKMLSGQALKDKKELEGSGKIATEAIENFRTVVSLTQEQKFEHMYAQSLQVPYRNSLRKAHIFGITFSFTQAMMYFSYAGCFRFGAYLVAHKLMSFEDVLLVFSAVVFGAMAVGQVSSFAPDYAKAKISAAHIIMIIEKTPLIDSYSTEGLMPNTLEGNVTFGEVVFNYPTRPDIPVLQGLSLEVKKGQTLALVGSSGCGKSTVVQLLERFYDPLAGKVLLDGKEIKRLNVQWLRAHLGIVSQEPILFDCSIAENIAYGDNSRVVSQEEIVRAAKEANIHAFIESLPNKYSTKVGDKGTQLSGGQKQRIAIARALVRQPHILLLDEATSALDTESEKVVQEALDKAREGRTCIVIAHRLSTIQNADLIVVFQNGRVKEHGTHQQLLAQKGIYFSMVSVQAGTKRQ
Sequence of BCRP (Q9UNQ0 whole entry, species assumed): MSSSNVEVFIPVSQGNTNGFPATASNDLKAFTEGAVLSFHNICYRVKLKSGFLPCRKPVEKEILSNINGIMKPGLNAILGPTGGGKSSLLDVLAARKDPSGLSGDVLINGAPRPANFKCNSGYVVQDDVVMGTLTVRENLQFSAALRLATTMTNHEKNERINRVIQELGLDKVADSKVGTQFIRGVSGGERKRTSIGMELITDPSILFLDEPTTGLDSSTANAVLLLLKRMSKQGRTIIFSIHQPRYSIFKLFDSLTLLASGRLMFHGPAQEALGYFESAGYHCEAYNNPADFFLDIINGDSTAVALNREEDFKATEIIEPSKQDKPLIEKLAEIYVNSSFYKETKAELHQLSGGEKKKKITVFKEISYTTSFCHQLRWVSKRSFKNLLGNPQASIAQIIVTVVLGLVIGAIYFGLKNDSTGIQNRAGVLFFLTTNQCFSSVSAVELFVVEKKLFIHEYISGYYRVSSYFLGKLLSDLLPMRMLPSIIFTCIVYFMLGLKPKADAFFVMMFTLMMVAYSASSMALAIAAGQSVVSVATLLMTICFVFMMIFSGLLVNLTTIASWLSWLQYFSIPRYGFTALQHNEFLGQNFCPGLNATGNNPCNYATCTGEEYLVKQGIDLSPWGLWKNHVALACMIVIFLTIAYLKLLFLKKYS

SMILES | IC50 (A375 cells; 72 h) [nM] | IC50 (A375 cells; Homo sapiens, A-375, 72 h) [nM] | Kp [1, 4] | clearance [1, 5] [mL/min/kg] | half-life [1, 5] [h] | AUC(0-t) [1, 6] [µg·h/mL] | Vd [1, 5] [L/kg] | half-life [1, 7] [h] | AUC(0-t) [1, 8] [µg·h/mL] | F ([1]; mouse, i.g. 10 mg/kg) [%] | other results
N#Cc1c(NS(=O)(=O)N2CC3(CCC3F)C2)ccc(F)c1Oc1ccc2ncn(CC(F)F)c(=O)c2c1 (single isomer, unassigned) [Compound 40] | ≤ 10 |  |  |  |  |  |  |  |  |  | 
COn1cnc2ccc(Oc3c(F)ccc(NS(=O)(=O)N4CC[C@@H](F)C4)c3C#N)cc2c1=O [Compound 4] |  | ≤ 10 | 0.053 | 0.37 | 5.27 | 107 | 0.147 | 4.02 | 282 |  | 
Cn1cnc2ccc(Oc3c(F)ccc(NS(=O)(=O)N4CC5(CC5)C4)c3C#N)cc2c1=O [Compound 5] |  | ≤ 10 | 0.0181 | 0.0627 | 30.2 | 290 | 0.159 | 19.2 | 1080 | 93.6 | 
COn1cnc2ccc(Oc3c(F)ccc(NS(=O)(=O)N4CC5(CCC5)C4)c3C#N)cc2c1=O [Compound 7] |  |  | 0.0425 | 0.144 | 9.79 | 240 | 0.111 | 13.7 | 792 | 92.6 | 
COn1cnc2ccc(Oc3c(F)ccc(NS(=O)(=O)N4CC5(CC5)C4)c3C#N)cc2c1=O [Compound 8] |  |  | 0.0173 | 0.147 | 8.59 | 247 | 0.0941 | 12.9 | 1300 | ≥98 | 
N#Cc1c(NS(=O)(=O)N2CC3(CCC3)C2)ccc(F)c1Oc1ccc2ncn(CC(F)F)c(=O)c2c1 [Compound 10] |  | ≤ 10 | 0.0107 | 0.117 | 12 | 272 | 0.111 | 11.8 | 914 | 83.9 | F ([2]; i.g. 3 mg/kg): 79.7%; clearance ([2]; male, iv, beagle dog plasma, i.v. 0.5 mg/kg): 0.425 mL/min/kg; AUC(0-t) ([2]; male, iv, beagle dog plasma, i.v. 0.5 mg/kg, read-out: AUC0-t): 40.9 µg·h/mL; Vd ([2]; male, iv, beagle dog plasma, i.v. 0.5 mg/kg, read-out: Vdss): 0.155 L/kg; AUC(0-t) ([2]; male, po, beagle dog plasma, i.g. 3 mg/kg, read-out: AUC0-t): 97.8 µg·h/mL
Cn1cnc2ccc(Oc3c(F)ccc(NS(=O)(=O)N4CC(CF)C4)c3C#N)cc2c1=O [Compound 14] |  | ≤ 10 |  |  |  |  |  |  |  |  | 
Cn1cnc2ccc(Oc3c(F)ccc(NS(=O)(=O)N4CCC5CC54)c3C#N)cc2c1=O (centres unmarked) [Compound 17] |  | ≤ 10 |  |  |  |  |  |  |  |  | 
N#Cc1c(NS(=O)(=O)N2CC3(CCC3)C2)ccc(F)c1Oc1ccc2ncn3ccnc3c2c1 [Compound 22] |  | ≤ 10 |  |  |  |  |  |  |  |  | 
N#Cc1c(NS(=O)(=O)N2CC3(CCC3)C2)ccc(F)c1Oc1ccc2ncn(CCF)c(=O)c2c1 [Compound 26] |  | ≤ 10 | 0.0179 | 0.119 | 12.8 | 266 | 0.114 | 8.68 | 832 | 78.1 | 
N#Cc1c(NS(=O)(=O)N2CC3(CCC3)C2)ccc(F)c1Oc1ccc2ncn(C3COC3)c(=O)c2c1 [Compound 33] | ≤ 10 |  |  |  |  |  |  |  |  |  | 
N#Cc1c(NS(=O)(=O)N2CC3(CCC3)C2)cc(F)c(F)c1Oc1ccc2ncn(CCF)c(=O)c2c1 [Compound 39] | ≤ 10 |  |  |  |  |  |  |  |  |  | AUC(0-t) ([2]; beagle dog plasma, i.g. 3 mg/kg): 84.281 µg·h/mL; AUC(0-t) [2, 9]: 31.095 µg·h/mL; CL [2, 9]: 0.541 mL/min/kg; Vdss [2, 9]: 0.08 L/kg; F ([2]; i.g. 3 mg/kg): 90.3%
N#Cc1c(NS(=O)(=O)N2CC3(CCC3(F)F)C2)ccc(F)c1Oc1ccc2ncn(CC(F)F)c(=O)c2c1 [Compound 42] | ≤ 10 |  |  |  |  |  |  |  |  |  | 
Cc1cnc2c3cc(Oc4c(F)ccc(NS(=O)(=O)N5CC6(CCC6)C5)c4C#N)ccc3ncn12 [Compound 44] | ≤ 10 |  |  |  |  |  |  |  |  | 87.9 | AUC(0-t) ([1]; mouse plasma, i.g. 10 mg/kg): 442.783 µg·h/mL; T1/2 ([1]; mouse plasma, i.g. 10 mg/kg): 14.2 h; AUC(0-t) ([1]; mouse plasma, i.v. 2.5 mg/kg): 125.977 µg·h/mL; CL ([1]; mouse plasma, i.v. 2.5 mg/kg): 0.335 mL/min/kg; T1/2 ([1]; mouse plasma, i.v. 2.5 mg/kg): 7.5 h; Vdss ([1]; mouse plasma, i.v. 2.5 mg/kg): 0.135 L/kg; brain/plasma ratio ([1]; mouse, i.g. 10 mg/kg): 0.0162
N#Cc1c(NS(=O)(=O)N2CC3(CCC3)C2)cc(F)c(F)c1Oc1ccc2ncn3ccnc3c2c1 [Compound 46] | ≤ 10 |  |  |  |  |  |  |  |  |  | 
N#Cc1c(NS(=O)(=O)N2CC3(CC3)C2)ccc(F)c1Oc1ccc2ncn(CCF)c(=O)c2c1 [Compound 47] | ≤ 10 |  |  |  |  |  |  |  |  |  | AUC(0-t) (Rat pharmacokinetic test; [10]): 4256.852 µg·h/mL; T1/2 (Rat pharmacokinetic test; [10]): 60.6 h; AUC(0-t) (Rat pharmacokinetic test; [11]): 1156.844 µg·h/mL; CL (Rat pharmacokinetic test; [11]): 0.036 mL/min/kg; T1/2 (Rat pharmacokinetic test; [11]): 50.9 h; Vdss (Rat pharmacokinetic test; [11]): 0.156 L/kg; F (Rat pharmacokinetic test; rat, intragastric administration 10 mg/kg): 92%
N#Cc1c(NS(=O)(=O)N2CC3(CC3)C2)ccc(F)c1Oc1ccc2ncn3ccnc3c2c1 [Compound 49] | ≤ 10 |  |  |  |  |  |  |  |  |  | 
N#Cc1c(NS(=O)(=O)N2CC3(CC3)C2)cc(F)c(F)c1Oc1ccc2ncn(CCF)c(=O)c2c1 [Compound 50] | ≤ 10 |  |  |  |  |  |  |  |  |  | 
N#Cc1c(NS(=O)(=O)N2CC[C@@H](F)C2)cc(F)c(F)c1Oc1ccc2ncn(CCF)c(=O)c2c1 [Compound 51] | ≤ 10 |  |  |  |  |  |  |  |  |  | 
CCCS(=O)(=O)Nc1ccc(F)c(C(=O)c2c[nH]c3ncc(-c4ccc(Cl)cc4)cc23)c1F [Vemurafenib] |  |  |  |  |  |  |  |  |  |  | MDR1 efflux ratio (MDR1): 83; BCRP efflux ratio (BCRP): 495; total brain-to-plasma ratio [3]: 0.004
